The record followed here is ChEMBL document CHEMBL1201862, “PubChem BioAssay data set” (2004).

The EC50 is the midpoint of the concentration-response curve. By AC50 is commonly meant the concentration at which the activity in the assay is half-maximal. By Ki is commonly meant a dissociation constant, usually derived from enzyme kinetics or from competition with a known ligand.

Activity calls are given as the source filed them.

Test [1] in a line: NIH-3T3 fibroblast cytotoxicity, dose response, cytotoxicity control, cell-based, fluorescence, Alamar Blue, secondary assay (AID 2327).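 Further: NIH-3T3 mouse fibroblasts cultured with fluconazole at 8 µg/mL.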 It is filed as functional. On the technique in general: The colour change of resazurin is a common sign of viable cells or microbes.
Test [2] in a line: fluconazole-exposed Candida albicans growth modulators – fluorescence, retest, confirmation (AID 2467). It counts as functional, cell-based.
A short description of test [3]: non-specific 3'UTR reporter inhibition in Clone20-Shn3RL – cell-based, Renilla luciferase, cherry-picked, counter-screen for Shn3 inhibitor project, dose response (AID 624133). It counts as functional. (The purpose of a counterscreen is to sort out artefacts and off-target activity.)
Test [4] addresses 5'-AMP-activated protein kinase catalytic subunit alpha-1 (Homo sapiens, UniProt Q13131). It counts as functional.
The target in test [5] is T1, Tyrosine-protein kinase receptor TYRO3 (Homo sapiens, UniProt Q06418).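 Further: TYRO3 value obtained as one member of a kinome-wide profiling panel.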
T1 sequence (Q06418 whole entry): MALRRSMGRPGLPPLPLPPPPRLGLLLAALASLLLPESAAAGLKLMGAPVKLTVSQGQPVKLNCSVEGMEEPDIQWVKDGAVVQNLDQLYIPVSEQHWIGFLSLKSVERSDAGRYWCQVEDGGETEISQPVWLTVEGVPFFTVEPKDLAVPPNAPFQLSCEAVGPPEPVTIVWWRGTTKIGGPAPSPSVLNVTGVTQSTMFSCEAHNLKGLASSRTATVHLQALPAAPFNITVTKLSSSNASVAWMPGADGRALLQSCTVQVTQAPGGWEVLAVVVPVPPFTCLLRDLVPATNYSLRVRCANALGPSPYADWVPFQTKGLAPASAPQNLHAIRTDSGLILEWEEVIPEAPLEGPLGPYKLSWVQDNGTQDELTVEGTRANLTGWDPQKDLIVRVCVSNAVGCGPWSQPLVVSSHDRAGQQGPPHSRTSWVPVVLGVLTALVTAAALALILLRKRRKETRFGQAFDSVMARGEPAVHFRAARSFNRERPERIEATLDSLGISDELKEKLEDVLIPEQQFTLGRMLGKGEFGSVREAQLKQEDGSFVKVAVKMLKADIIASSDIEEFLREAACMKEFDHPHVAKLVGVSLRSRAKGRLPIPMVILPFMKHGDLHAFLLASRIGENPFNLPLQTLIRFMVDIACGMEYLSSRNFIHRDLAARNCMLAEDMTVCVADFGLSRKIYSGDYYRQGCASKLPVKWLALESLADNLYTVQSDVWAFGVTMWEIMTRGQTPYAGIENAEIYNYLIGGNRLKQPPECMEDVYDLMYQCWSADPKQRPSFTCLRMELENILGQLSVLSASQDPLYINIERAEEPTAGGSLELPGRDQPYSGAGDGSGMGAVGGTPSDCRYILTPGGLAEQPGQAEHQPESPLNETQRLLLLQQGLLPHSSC
It is filed as functional.

Test [6] addresses Serine/threonine-protein kinase pim-1 (Homo sapiens, UniProt P11309). It is filed as functional.
Test [7] has as its target T2, Aurora kinase A (Homo sapiens, UniProt O14965).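 Further: value from the Navigating the Kinome kinase panel profiling, panel entry STK6.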
T2 sequence (O14965 whole entry): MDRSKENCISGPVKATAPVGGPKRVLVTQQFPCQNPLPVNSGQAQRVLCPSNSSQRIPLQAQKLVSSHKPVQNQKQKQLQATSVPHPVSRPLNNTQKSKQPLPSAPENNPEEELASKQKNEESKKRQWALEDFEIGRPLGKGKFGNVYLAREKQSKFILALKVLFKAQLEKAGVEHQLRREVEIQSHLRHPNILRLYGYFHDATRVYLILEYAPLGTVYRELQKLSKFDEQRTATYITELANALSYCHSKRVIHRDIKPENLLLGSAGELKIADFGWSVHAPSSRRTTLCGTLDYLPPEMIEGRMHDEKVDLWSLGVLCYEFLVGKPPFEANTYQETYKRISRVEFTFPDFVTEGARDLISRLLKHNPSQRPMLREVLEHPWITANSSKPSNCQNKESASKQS
It counts as functional.

For test [8], the target named is Serine/threonine-protein kinase PAK 4 (Homo sapiens, UniProt O96013). It is filed as functional.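 Further: value obtained within a kinome profiling panel in which PAK4 was one of the panel members.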
Test [9] has as its target Fibroblast growth factor receptor 1 (Homo sapiens, UniProt P11362). It is filed as functional.
The target of test [10] is Casein kinase I isoform alpha (Homo sapiens, UniProt P48729). It is filed as functional.
The target of test [11] is Hepatocyte growth factor receptor (Homo sapiens, UniProt P08581). It is filed as functional.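 Further: kinase panel profiling across the kinome, with MET as the panel member.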
In test [12] the target is Vascular endothelial growth factor receptor 2 (Homo sapiens, UniProt P35968). It is filed as functional.
Test [13] deals with Leucine-rich repeat serine/threonine-protein kinase 2 (Homo sapiens, UniProt Q5S007). It is filed as functional.
Test [14] has as its target Tyrosine-protein kinase Fyn (Homo sapiens, UniProt P06241). It counts as functional.
Test [15] concerns the target T3, Serine/threonine-protein kinase Nek2 (Homo sapiens, UniProt P51955).
T3 sequence (P51955 whole entry): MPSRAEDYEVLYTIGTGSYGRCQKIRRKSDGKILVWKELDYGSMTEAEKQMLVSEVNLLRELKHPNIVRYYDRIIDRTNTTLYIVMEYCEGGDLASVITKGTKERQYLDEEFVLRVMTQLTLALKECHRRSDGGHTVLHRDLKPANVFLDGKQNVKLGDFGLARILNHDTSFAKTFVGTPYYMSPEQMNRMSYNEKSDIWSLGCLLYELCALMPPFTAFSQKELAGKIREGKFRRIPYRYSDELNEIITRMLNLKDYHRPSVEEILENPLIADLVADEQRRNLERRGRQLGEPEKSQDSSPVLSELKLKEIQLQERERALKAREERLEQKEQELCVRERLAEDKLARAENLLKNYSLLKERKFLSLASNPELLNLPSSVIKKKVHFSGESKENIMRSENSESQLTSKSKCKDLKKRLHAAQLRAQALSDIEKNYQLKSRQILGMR
It is filed as functional.

For test [16], the target named is Cyclin-dependent kinase 7 (Homo sapiens, UniProt P50613). It is filed as functional.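 Further: value comes from a kinome-wide kinase profiling panel in which CDK7 is one member.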
The target in test [17] is Vascular endothelial growth factor receptor 1 (Homo sapiens, UniProt P17948). It counts as functional.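 Further: measured within a kinome-wide profiling panel, FLT1 as the panel member.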
Test [18] deals with Macrophage colony-stimulating factor 1 receptor (Homo sapiens, UniProt P07333). It is filed as functional.
Chain of Macrophage colony-stimulating factor 1 receptor (P07333 whole entry): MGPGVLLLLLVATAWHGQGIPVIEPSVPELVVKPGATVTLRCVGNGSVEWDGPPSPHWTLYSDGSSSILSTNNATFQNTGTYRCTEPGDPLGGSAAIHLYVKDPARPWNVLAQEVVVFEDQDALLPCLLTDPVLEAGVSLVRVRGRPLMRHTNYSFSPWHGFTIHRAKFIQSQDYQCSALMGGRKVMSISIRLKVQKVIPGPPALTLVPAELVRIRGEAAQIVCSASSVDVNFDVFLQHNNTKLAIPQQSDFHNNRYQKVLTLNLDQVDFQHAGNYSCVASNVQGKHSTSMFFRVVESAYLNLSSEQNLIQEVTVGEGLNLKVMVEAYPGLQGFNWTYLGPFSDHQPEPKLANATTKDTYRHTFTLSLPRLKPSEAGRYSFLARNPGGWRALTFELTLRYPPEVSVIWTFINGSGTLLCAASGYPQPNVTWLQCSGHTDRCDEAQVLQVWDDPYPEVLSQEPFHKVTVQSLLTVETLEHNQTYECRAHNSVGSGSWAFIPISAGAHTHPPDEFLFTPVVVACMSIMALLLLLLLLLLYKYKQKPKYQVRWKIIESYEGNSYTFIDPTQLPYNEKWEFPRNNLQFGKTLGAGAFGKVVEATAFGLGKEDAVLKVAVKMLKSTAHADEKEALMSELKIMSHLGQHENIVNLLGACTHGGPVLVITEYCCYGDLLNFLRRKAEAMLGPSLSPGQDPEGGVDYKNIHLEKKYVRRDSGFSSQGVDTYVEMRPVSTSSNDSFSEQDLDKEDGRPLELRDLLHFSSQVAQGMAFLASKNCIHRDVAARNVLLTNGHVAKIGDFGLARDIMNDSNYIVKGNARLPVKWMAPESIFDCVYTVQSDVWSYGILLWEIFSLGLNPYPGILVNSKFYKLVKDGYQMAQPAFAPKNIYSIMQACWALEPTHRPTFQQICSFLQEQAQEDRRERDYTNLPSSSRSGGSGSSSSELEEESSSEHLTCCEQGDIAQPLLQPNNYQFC

Chain of Hepatocyte growth factor receptor (P08581 whole entry): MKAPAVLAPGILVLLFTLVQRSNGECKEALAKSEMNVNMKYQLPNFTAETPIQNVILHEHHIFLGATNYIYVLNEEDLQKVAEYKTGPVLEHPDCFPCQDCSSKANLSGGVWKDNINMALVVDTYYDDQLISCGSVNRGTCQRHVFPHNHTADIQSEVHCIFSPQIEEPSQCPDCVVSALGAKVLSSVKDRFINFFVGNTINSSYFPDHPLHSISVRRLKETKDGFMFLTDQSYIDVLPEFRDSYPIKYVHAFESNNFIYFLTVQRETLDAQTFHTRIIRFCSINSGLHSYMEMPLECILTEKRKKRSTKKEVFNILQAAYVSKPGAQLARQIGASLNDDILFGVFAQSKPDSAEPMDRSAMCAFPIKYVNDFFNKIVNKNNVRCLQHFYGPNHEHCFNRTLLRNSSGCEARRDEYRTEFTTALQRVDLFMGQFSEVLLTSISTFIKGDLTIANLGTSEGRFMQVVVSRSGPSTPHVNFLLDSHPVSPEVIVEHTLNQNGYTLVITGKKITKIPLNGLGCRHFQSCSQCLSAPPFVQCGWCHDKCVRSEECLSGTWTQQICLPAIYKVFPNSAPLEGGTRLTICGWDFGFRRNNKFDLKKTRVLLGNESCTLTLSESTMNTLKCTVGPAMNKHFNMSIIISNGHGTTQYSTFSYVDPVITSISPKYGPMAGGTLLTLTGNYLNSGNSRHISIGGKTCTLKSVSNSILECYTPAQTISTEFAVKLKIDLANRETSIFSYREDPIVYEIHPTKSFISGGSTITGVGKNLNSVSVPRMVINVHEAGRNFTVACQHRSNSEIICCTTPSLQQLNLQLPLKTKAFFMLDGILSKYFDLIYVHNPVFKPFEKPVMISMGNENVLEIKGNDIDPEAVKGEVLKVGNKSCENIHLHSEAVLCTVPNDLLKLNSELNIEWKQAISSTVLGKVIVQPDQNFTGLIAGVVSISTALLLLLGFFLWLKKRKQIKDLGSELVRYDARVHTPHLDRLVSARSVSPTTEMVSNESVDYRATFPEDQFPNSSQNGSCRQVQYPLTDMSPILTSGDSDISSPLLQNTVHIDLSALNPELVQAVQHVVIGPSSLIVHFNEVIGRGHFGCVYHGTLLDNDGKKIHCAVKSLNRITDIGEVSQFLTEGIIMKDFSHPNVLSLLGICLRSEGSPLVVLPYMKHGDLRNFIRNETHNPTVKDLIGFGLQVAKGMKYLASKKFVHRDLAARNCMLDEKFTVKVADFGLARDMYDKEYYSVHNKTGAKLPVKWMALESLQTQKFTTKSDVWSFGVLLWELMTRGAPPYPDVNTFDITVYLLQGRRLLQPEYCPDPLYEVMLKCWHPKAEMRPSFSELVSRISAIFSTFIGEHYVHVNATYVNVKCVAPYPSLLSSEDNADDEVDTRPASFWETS
Chain of 5'-AMP-activated protein kinase catalytic subunit alpha-1 (Q13131 whole entry): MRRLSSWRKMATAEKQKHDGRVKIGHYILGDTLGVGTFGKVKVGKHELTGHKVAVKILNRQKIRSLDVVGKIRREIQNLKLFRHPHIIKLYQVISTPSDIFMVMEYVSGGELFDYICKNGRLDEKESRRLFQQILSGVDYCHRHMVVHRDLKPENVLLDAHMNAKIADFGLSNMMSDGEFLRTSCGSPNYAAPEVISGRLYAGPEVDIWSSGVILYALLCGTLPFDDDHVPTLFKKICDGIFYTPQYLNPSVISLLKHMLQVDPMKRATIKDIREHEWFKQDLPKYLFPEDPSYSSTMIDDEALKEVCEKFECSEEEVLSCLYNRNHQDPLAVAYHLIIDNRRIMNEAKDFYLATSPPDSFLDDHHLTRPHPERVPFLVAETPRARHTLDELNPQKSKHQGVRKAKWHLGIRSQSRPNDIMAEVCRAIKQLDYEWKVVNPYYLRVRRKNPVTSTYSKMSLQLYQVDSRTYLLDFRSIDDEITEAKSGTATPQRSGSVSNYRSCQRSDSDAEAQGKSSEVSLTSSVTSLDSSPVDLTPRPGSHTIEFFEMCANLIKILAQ
Chain of Casein kinase I isoform alpha (P48729 whole entry, canonical isoform): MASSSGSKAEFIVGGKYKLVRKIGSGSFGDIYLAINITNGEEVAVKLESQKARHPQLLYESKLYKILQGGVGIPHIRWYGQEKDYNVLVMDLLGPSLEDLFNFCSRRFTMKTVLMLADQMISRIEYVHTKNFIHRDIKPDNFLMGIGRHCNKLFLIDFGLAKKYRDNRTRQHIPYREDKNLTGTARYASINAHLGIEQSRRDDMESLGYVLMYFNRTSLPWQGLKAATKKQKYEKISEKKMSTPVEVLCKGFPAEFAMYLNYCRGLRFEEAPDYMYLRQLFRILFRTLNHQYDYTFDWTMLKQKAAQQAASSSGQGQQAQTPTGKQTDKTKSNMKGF
Chain of Vascular endothelial growth factor receptor 1 (P17948 whole entry): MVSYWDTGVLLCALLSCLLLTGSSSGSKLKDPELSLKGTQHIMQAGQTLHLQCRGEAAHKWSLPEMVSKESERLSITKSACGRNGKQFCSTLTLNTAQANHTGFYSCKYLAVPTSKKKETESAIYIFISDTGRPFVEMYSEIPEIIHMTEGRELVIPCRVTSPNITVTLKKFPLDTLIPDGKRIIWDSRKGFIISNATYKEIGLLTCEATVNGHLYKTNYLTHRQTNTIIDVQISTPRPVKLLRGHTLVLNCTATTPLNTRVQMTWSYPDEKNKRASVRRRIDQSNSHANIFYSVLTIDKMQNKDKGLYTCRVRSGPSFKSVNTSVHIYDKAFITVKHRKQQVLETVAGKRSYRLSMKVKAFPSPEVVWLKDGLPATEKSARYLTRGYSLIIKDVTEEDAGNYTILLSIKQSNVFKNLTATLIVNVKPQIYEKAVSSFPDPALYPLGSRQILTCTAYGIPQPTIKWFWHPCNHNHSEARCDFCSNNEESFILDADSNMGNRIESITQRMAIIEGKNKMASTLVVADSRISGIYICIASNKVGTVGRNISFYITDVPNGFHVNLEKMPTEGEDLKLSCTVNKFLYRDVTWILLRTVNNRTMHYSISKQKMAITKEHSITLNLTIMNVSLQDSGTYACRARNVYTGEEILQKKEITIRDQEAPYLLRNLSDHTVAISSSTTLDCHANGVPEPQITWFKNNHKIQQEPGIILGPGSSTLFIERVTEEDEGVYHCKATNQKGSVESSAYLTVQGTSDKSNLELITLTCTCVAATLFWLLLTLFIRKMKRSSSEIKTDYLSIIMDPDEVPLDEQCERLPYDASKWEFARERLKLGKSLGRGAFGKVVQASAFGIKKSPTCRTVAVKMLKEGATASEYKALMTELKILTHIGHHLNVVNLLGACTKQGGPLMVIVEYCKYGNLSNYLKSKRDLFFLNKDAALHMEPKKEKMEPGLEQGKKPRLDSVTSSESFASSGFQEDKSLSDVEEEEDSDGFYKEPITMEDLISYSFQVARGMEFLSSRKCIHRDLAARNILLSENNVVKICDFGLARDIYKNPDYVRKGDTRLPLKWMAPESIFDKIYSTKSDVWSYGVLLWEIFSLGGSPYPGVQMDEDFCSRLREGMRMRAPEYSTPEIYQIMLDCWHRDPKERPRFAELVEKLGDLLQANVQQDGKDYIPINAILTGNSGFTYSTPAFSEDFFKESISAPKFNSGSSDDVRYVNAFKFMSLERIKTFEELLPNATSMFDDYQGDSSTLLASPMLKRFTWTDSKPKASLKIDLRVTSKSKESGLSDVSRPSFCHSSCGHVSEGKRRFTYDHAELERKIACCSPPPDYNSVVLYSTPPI
Chain of Serine/threonine-protein kinase pim-1 (P11309 whole entry): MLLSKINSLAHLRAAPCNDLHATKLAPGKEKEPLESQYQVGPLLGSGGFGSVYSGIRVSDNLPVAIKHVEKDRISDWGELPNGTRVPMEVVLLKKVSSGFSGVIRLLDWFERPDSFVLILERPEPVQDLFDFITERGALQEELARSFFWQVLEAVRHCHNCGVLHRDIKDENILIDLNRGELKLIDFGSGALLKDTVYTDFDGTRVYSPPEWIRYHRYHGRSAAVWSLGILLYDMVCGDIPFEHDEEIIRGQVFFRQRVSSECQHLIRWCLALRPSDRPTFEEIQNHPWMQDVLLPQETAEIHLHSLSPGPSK

Consider `Cc1ccc(C(=O)OCn2ncc(Cl)c(Cl)c2=O)cc1`, for which the EC50 in test [1] was 3.07 µM (inconclusive); in test [2], > 38 µM (not active). Moreover, the AC50 in test [3] is 3.15 µM (active).
For the molecule `O=C(Nc1cccc(C2Nc3ccc4ccccc4c3C3C=CCC32)c1)c1ccc(F)cc1` (stereo unspecified), the Ki in test [4] was 3.16 µM (active); in [5], 1.26 µM (active); in test [6], 0.316 µM (active); in [7] it was 0.501 µM (active); in [8] it was > 5.01 µM (inactive); in [9], 0.794 µM (active). In addition, the Ki is 3.98 µM (active) in test [10]; 0.316 µM (active) in test [11]; > 2.51 µM (inactive) in test [12]; > 2.51 µM (inactive) in test [13]; > 6.31 µM (inactive) in test [14]; 1.58 µM (active) in test [15]. The values for the Ki in test [16], in test [17] and in test [18] were 1.26 µM (active), > 3.98 µM (inactive) and > 2.51 µM (inactive), respectively.
As for `Cc1ccc(-c2cc(-c3cc(Br)ccc3O)[nH]c(=O)c2C#N)s1`, the Ki is 0.794 µM (active) in test [4]; 0.794 µM (active) in [5]; 1 µM (active) in [6]; 1.58 µM (active) in [7]; 2 µM (active) in test [8]; 1 µM (active) in test [9]. Besides, the Ki in test [10] was > 3.98 µM (inactive); in test [11] it was > 2.51 µM (inactive); in test [12], 0.631 µM (active); in [13], > 2.51 µM (inactive); in [14] it was 3.16 µM (active); in test [15], > 3.16 µM (inactive). Also, the Ki is > 3.98 µM (inactive) in test [16], > 3.98 µM (inactive) in [17] and 0.398 µM (active) in test [18].
`CCCC(=O)NC(c1cccs1)c1cc(Cl)c2cccnc2c1O` (stereo unspecified): the EC50 was > 150 µM (inactive) in [1] and 0.707 µM (active) in test [2]. Further, the AC50 in [3] is 4.36 µM (active).
